10 compounds from patent EP3807270B1, “NOVEL HETEROARYL HETEROCYCLYL COMPOUNDS FOR THE TREATMENT OF AUTOIMMUNE DISEASE” (F. Hoffmann-La Roche AG, priority 2018, dated 2019) can be followed below.

Molecules are shown by their SMILES.

The target in data set [1] is T1, hTLR9 (Homo sapiens, UniProt Q9NR96).
T1 sequence (Q9NR96 26-1032): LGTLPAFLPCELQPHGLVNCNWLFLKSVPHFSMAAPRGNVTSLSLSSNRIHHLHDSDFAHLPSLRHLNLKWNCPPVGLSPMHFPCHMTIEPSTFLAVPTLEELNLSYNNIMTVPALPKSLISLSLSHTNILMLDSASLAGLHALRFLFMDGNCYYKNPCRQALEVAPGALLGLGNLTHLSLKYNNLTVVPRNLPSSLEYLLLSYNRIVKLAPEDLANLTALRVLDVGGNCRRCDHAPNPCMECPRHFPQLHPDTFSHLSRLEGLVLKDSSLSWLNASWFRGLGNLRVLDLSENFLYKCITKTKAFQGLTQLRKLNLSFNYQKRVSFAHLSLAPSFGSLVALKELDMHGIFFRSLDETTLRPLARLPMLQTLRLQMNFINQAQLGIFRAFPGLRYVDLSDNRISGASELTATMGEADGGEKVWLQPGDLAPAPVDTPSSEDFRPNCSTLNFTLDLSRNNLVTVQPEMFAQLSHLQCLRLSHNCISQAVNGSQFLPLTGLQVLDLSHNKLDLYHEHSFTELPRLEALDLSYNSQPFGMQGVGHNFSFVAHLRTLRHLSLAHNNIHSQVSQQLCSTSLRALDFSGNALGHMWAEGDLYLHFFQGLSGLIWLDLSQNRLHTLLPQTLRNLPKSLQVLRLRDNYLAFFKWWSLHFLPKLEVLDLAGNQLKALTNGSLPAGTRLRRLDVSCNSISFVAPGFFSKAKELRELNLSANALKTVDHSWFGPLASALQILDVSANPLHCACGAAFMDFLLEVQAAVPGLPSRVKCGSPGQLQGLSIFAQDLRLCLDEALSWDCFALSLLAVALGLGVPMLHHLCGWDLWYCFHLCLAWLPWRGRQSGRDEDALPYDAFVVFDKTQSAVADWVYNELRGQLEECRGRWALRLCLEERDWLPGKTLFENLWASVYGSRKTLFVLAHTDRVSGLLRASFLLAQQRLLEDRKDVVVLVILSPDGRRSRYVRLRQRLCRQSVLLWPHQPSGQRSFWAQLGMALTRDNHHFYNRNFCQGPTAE
The data set can be described thus: HEK293-Blue-hTLR-9 cells assay (SEAP reporter, ODN2006 stimulation). Type of data set: cell-based. More on the design: host or cells: HEK293 (HEK-Blue). As to conditions: HEK293-Blue-hTLR9 cells, ODN2006, 20 hrs; read-out: HEK/hTLR9 IC50. An excerpt:
A stable HEK293-Blue-hTLR-9 cell line was purchased from InvivoGen (Cat.#: hkb-htlr9, San Diego, California, USA). These cells were originally designed for studying the stimulation of human TLR9 by monitoring the activation of NF-κB. A SEAP (secreted embryonic alkaline phosphatase) reporter gene was placed under the control of the IFN-β minimal promoter fused to five NF-κB and AP-1-binding sites. The SEAP was induced by activating NF-κB and AP-1 via stimulating HEK-Blue hTLR9 cells with TLR9 ligands. Therefore, the reporter expression was declined by TLR9 antagonist under the stimulation of a ligand, such as ODN2006 (Cat.#: tlrl-2006-1, Invivogen, San Diego, California, USA), for incubation of 20 hrs. The cell culture supernatant SEAP reporter activity was determined using QUANTI-Blue™ kit (Cat.#: rep-qb 1, Invivogen, San Diego, California, USA) at a wavelength of 640 nm, a detection medium that turns purple or blue in the presence of alkaline phosphatase.
HEK293-Blue-hTLR9 cells were incubated at a density of 250,000-450,000 cells/mL in a volume of 170 µL in a 96-well plate in Dulbecco's Modified Eagle's medium (DMEM) containing 4.5 g/L glucose, 50 U/mL penicillin, […], […], 2 mM L-glutamine, 10% (v/v) heat-inactivated fetal bovine serum with addition of 20 µL test compound in a serial dilution in the presence of final DMSO at 1% and 10 µL of 20uM ODN2006 in above DMEM, perform incubation under 37 °C in a CO2 incubator for 20 hrs. Then 20 µL of the supernatant from each well was incubated with 180 µL Quanti-blue substrate solution at 37 °C for 2 hrs and the absorbance was read at 620-655 nm using a spectrophotometer. The signaling pathway that TLR9 activation leads to downstream NF-κB activation has been widely accepted, and therefore similar reporter assay was modified for evaluating TLR9 antagonist.

Data set [2] addresses T2, CYP2D6 (Homo sapiens, UniProt P10635).
T2 construct: tissue BD-Gentest 452117; host or cells: human liver microsomes
The data set is described as follows: CYP inhibition assay in human liver microsome. Type of data set: in vitro ADME. As to conditions: human liver microsomes, probe dextromethorphan, 10µM test compound, dextromethorphan substrate, <0: not or weak inhibitor, read-out: CYP 2D6 inhibition %@10µM. Here is the method:
This is a high throughput screening assay used for assessment of reversible inhibition of CYP2D6 activity of test compounds in human liver microsome (HLM) in early discovery stage. Table 4. Chemicals and materials used in the CYP inhibition assay
10 mM DMSO stock solutions of test compounds were diluted in DMSO to generate 2 mM intermediate stock solution. 250 nL of intermediate stock solution were transferred in duplicate into 3 separate 384 well microtitre plates (assay-ready plates). A mixture of HLM and each substrate was made up. 45 µL of HLM substrate mix was then transferred to each well of an assay ready plate and mixed. The negative (solvent) and positive control (standard inhibitor for CYP 2D6) were included in each assay ready plate. The assay ready plate was warmed to 37 °C in an incubator over 10 minutes. 5 µL pre-warmed NADPH regenerating system was added to each incubation well to start the reaction. Final incubation volume was 50 µL. The assay plate then was placed back in the 37 °C incubator. After 10-minute incubation, incubates were quenched by addition of 50 µL 100% acetonitrile containing internal standards (20 ng/mL D3-Dextrorphan). The supernatants were collected for RapidFire/MS/MS analysis.
RapidFire online solid phase extraction/sample injection system (Agilent) coupled with API4000 triple quadrupole mass spectrometer (AB Sciex) were used for sample analysis. The mobile phase composed of acetonitrile and water supplemented with 0.1% formic acid. A C4 solid phase extraction cartridge is used for sample separation. MS detection is achieved in positive ion MRM mode.
Peak areas for substrate, metabolite and internal standard are determined using the RapidFire integrator software (version 3.6.12009.12296). Peak area ratios (PAR) of metabolite and internal standard (stable-labelled metabolite) are then calculated. The measurement window for each experiment is then defined: • PAR (0% activity)= average PAR for all incubations containing concentrated inhibitor; • Par (100% activity)= average PAR for all incubations containing no inhibitor (DMSO controls); • % Activity (test inhibitor) • =[PAR(test inhibitor)-PAR(0% activity)]/[PAR(100% activity)-PAR(0% activity)]; • % Inhibition (test inhibitor)=100-% Activity (test inhibitor).
On the technique in general: Liver microsomes are a subcellular fraction often used to study metabolism.

T2 sequence (P10635 whole entry): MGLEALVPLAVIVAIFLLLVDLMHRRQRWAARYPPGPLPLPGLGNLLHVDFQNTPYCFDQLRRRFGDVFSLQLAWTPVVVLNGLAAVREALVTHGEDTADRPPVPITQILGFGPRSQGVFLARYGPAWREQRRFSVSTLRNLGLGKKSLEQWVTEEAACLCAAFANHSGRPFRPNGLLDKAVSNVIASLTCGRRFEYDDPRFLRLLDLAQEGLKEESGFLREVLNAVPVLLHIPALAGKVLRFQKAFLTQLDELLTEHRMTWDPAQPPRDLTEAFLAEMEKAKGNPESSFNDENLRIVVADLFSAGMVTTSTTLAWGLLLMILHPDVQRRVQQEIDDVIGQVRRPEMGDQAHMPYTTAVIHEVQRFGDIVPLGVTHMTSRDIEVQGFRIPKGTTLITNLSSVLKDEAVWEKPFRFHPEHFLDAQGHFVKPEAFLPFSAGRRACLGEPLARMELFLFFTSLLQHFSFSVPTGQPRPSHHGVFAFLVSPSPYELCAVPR

Turning to `C[C@@H]1CN(c2ccc(C#N)c3ncccc23)C[C@H](CN2CCN(c3ccc4c(c3)CNC4)CC2)O1` [Example 7, 5-[(2S,6R)-2-[(4-isoindolin-5-ylpiperazin-1-yl)methyl]-6-methyl-morpholin-4-yl] quinoline-8-carbonitrile], in data set [1], the IC50 stood at 89 nM. For the same compound, the inhibition at 10 min, 10 µM in data set [2] worked out at 15%.

For `C[C@@H]1CN(c2ccc(C#N)c3ncsc23)C[C@H](CN2CCN(c3cnc4c(c3)CNC4)CC2)O1` [Example 8, 7-[(2S,6R)-2-[[4-(6,7-dihydro-5H-pyrrolo[3,4-b]pyridin-3-yl)piperazin-1-yl]methyl]-6-methyl-morpholin-4-yl]-1,3-benzothiazole-4-carbonitrile], in data set [1], the IC50 came to 48 nM. The inhibition at 10 min, 10 µM in data set [2] is 13%.

On to `C[C@@H]1CN(c2ccc(C#N)c3ncccc23)C[C@H](CN2CCN(c3ncc4c(n3)CNC4)CC2)O1` [Example 11, 5-[(2S,6R)-2-[[4-(6,7-dihydro-5Hpyrrolo[3,4-d]pyrimidin-2-yl)piperazin-1-yl]methyl]-6-methyl-morpholin-4-yl]quinoline-8-carbonitrile], for which the IC50 in data set [1] was 252 nM. Also, the inhibition at 10 min, 10 µM in data set [2] is 19%.

Take `C[C@@H]1CN(c2ccc(C#N)c3ncccc23)C[C@H](CN2CCN(c3ccc4c(n3)CCNC4)CC2)O1` [Example 14, 5-[(2R,6S)-2-methyl-6-[[4-(5,6,7,8-tetrahydro-1,6-naphthyridin-2-yl)piperazin-1-yl]methyl]morpholin-4-yl]quinoline-8-carbonitrile]: the IC50 in data set [1] is 58 nM. Further, the inhibition at 10 min, 10 µM in data set [2] was -6%.

Take `C[C@@H]1CN(c2ccc(C#N)c3ncccc23)C[C@H](CN2CCN(c3ccc4c(c3)CN(CCO)C4)CC2)O1` [Example 16, 5-[(2S,6R)-2-[[4-[2-(2-hydroxyethyl)isoindolin-5-yl]piperazin-1-yl]methyl]-6-methyl-morpholin-4-yl]quinoline-8-carbonitrile]: in data set [1], the IC50 was found to be 91 nM. Moreover, the inhibition at 10 min, 10 µM in data set [2] came out at 2.5%.

On to `C[C@@H]1CN(c2ccc(C#N)c3ncccc23)C[C@H](CN2CCN(c3cnc4c(n3)CCNC4)CC2)O1` [Example 17, 5-[(2R,6S)-2-methyl-6-[[4-(5,6,7,8-tetrahydropyrido[3,4-b]pyrazin-2-yl)piperazin-1-yl]methyl]morpholin-4-yl]quinoline-8-carbonitrile], for which the IC50 in data set [1] is 98 nM. Also, the inhibition at 10 min, 10 µM in data set [2] was found to be 4.5%.

`C[C@@H]1CN(c2ccc(C#N)c3ncccc23)C[C@H](CN2CCN(c3cc4c(cn3)CNC4)CC2)O1` [Example 18, 5-[(2S,6R)-2-[[4-(2,3-dihydro-1H-pyrrolo[3,4-c]pyridin-6-yl)piperazin-1-yl]methyl]-6-methyl-morpholin-4-yl] quinoline-8-carbonitrile]: in data set [1], the IC50 is 98 nM. Also, the inhibition at 10 min, 10 µM in data set [2] was 13%.

`C[C@@H]1CN(c2ccc(C#N)c3ncccc23)C[C@H](CN2CCN(c3cc4c(cn3)CNCC4)CC2)O1` [Example 19, 5-[(2R,6S)-2-methyl-6-[[4-(5,6,7,8-tetrahydro-2,7-naphthyridin-3-yl)piperazin-1-yl]methyl]morpholin-4-yl]quinoline-8-carbonitrile]: the IC50 in data set [1] is 63 nM. Moreover, the inhibition at 10 min, 10 µM in data set [2] is 7.5%.

Consider `C[C@@H]1CN(c2ccc(C#N)c3ncccc23)C[C@H](CN2CCN(c3cc4c(cn3)CCNC4)CC2)O1` [Example 20, 5-[(2R,6S)-2-methyl-6-[[4-(5,6,7,8-tetrahydro-2,6-naphthyridin-3-yl)piperazin-1-yl]methyl]morpholin-4-yl]quinoline-8-carbonitrile], for which the IC50 in data set [1] was found to be 72 nM. For the same compound, the inhibition at 10 min, 10 µM in data set [2] was -5.5%.

As for `C[C@@H]1CN(c2ccc(C#N)c3ncccc23)C[C@H](CN2CCN(c3cnc4c(c3)CNCC4)CC2)O1` [Example 21, 5-[(2R,6S)-2-methyl-6-[[4-(5,6,7,8-tetrahydro-1,6-naphthyridin-3-yl)piperazin-1-yl]methyl]morpholin-4-yl]quinoline-8-carbonitrile], the IC50 in data set [1] came out at 52 nM. For the same compound, the inhibition at 10 min, 10 µM in data set [2] is -4.5%.

In general, inhibition refers to the change of the read-out against control, counted positive when it falls.
